Measured values taken from patent publication US20260199287A1, “LIPO-HYDROXAMIC ACID DERIVATIVE AND PHARMACEUTICAL USE THEREOF” (MediciBIO Co., Ltd, priority 2022, published 2026).
Like-named read-outs stand apart in the source and are kept apart here. Each block holds one molecule with its values, some of them ahead of it.

Assays:
peroxiredoxin 1 (Prdx1) = test: Real-time PCR, Prdx1 mRNA; assay type: cell-based, human; conditions: corneal dystrophy-like environment
Method: (§1) To identify the antioxidant mechanism of the lipo-hydroxamic acid derivative prepared above, real-time PCR was performed to detect the mRNA expression levels of the antioxidant enzymes downstream of Nrf2. First, human corneal endothelial cells were cultured at 3×10^5 cells per well in a 6-well plate coated with FNC Coating Mix for 18 to 24 hours, and the samples were treated. Four hours after the sample treatment, the corneal dystrophy-like environment was induced using the same method as described in Example 3-2. Twenty-four hours after inducing the corneal dystrophy-like environment, RNA was isolated from the cells using an RNA extraction kit (Bioneer, Daejeon), and cDNA was synthesized from […] of RNA using RT PreMix (Bioneer). Subsequently, real-time PCR was performed using GoTaq mater mix (Promega) containing SYBR green solution at 95° C. for 2 minutes, followed by 35 cycles at 95° C. for 15 seconds and at 60° C. for 1 minute.

[1] = assay type: in vitro ADME
cleaved caspase-3 = test: Western blot of cleaved caspase-3; assay type: cell-based, human; conditions: compared to the control group; environment induced 24 hours after sample treatment
Method: (§2) To identify a mechanism of antioxidant activity of the lipo-hydroxamic acid derivative prepared above, Western blot was performed to detect protein expression of nuclear factor erythroid-2-related factor 2 (Nrf2; NCBI Gene ID: 4780) which is an antioxidant transcription factor. First, human corneal endothelial cells were cultured at 3×10^5 cells per well in a 6-well plate coated with FNC Coating Mix for 18 to 24 hours, and the samples were treated. Four hours after the sample treatment, the corneal dystrophy-like environment was induced in accordance with the method described in Example 3-2. […] Protein concentration in the supernatant was determined using a BCA kit (Thermo Fisher Scientific, MA, USA). […]
To identify the effect of the lipo-hydroxamic acid derivative prepared above on apoptosis in corneal endothelial cells, Western blot was performed to detect the protein expression of cleaved caspase-3 which is a major protease involved in apoptosis. […] The anti-cleaved caspase-3 antibody (Asp175; Cell Signaling Technology) was used as the primary antibody, and the cleaved caspase-3 expression was detected by a chemiluminescence image analysis system.

Smad2/3 = test: Western blot of Smad2/3 phosphorylation; assay type: cell-based, human; conditions: compared to the control group (corneal dystrophy-mimicking)
collagen I = test: Real-time PCR, collagen I mRNA; assay type: cell-based, human; conditions: corneal dystrophy-like environment
Method: as §1
(§3) To identify the effect of the lipo-hydroxamic acid derivative prepared above on the expression of fibrosis- and cellular degeneration-related factors in corneal endothelial cells, real-time PCR was performed to detect mRNA expression levels of the fibrosis marker N-cadherin, and the cellular degeneration markers collagen I and fibronectin. The real-time PCR was performed in the same manner as in Example 5-2 above.

ABCB6 = test: Real-time PCR, ABCB6 mRNA; assay type: cell-based, human; conditions: corneal dystrophy-like environment
Method: as §1

[2] = Stability as an eye drop composition (HPLC peak area); assay type: physicochemical; conditions: for Peak area(%) Sample 1 / Peak area(%) Total amount of decomposed products: HPLC
Method: In order to identify the stability of the lipo-hydroxamic acid derivative prepared above as an eye drop composition, the ratio (peak area, % o) of the active ingredient and decomposed product of the sample (Sample 1) was determined via HPLC analysis.

[3] = tested on: human corneal endothelial cells; test: Anti-apoptotic effect, CellTiter-Glo 2.0 cell viability assay in corneal dystrophy-like environment; assay type: cell-based; conditions: compared to control group (corneal dystrophy-mimicking); 24 hours treatment
Method: PriNeu I medium, which is a serum-free medium, was supplemented with 10% fetal bovine serum, human epidermal growth factor (EGF), human vascular endothelial growth factor (VEGF), human insulin, human transferrin, sodium selenite, hydrocortisone, heparin, R estradiol, L-glutamine, penicillin/streptomycin, and G418 (geneticin). Human corneal endothelial cells (purchased from Creative Biolabs (NY, USA)) were seeded onto culture dishes coated with FNC Coating Mix (Athena Environmental Science, MD, USA) and incubated at 37° C. in a humidified 5% CO2 atmosphere. […]
In order to identify the effect of the lipo-hydroxamic acid derivative prepared above on apoptosis caused by corneal dystrophy in corneal endothelial cells, human corneal endothelial cells were cultured in the same manner as in Example 3-1. […] Afterwards, the samples (Samples 1, 4, and 5) were pretreated for 24 hours, and cell viability was measured via the CellTiter-Glo 2.0 cell viability assay (Promega). The number of viable cells was determined based on intracellular ATP levels, and the luminescence intensity was measured using a GloMax Discover microplate reader (Promega).

NQO-1 = test: Real-time PCR, NQO-1 mRNA; assay type: cell-based, human; conditions: corneal dystrophy-like environment
Method: as §1

Smad3 = test: SMAD3 (pS423/pS425) ELISA; assay type: cell-based, human; conditions: compared to the control group (corneal dystrophy-like environment)
Method: To identify the effect of the lipo-hydroxamic acid derivative prepared above on the expression of factors associated with fibrosis- and cellular degeneration-related factors in corneal endothelial cells, ELISA was performed to observe the activity of Smad3 protein. Analysis was carried out using SMAD3 (pS423/pS425) Human InstantOne ELISA kit (Thermo Fisher Scientific) according to the manufacturer's instructions. Human corneal endothelial cells were seeded in a 96-well plate at 2×10^4 cells per well, cultured for 24 hours, and then treated with the sample. Twenty-four hours after the sample treatment, the corneal dystrophy-like environment was induced in the same manner as in Example 3-2. Twenty-four hours after the induction, the cells were washed with PBS, lysed by adding 100 μL of lysis buffer mixture prepared by mixing the cell lysis reagent and buffer supplied in the kit. Subsequently, 50 μL of the cell lysate from each sample was added to the ELISA microplate wells. A 1:1 mixture of capture antibody and detection antibody, as provided in the kit, was prepared to form an antibody cocktail, and 50 μL of this mixture was added to each well. The plate was sealed and incubated at room temperature on a shaker at 300 rpm for 1 hour. […] The plate was then read using a microplate reader (Promega) at an absorbance of 450 nm.

[4] = tested on: nuclear factor erythroid-2-related factor 2 (Nrf2); test: Western blot of Nrf2 protein expression; assay type: cell-based, human; conditions: compared to the control; corneal dystrophy-like environment
Method: To identify a mechanism of antioxidant activity of the lipo-hydroxamic acid derivative prepared above, Western blot was performed to detect protein expression of nuclear factor erythroid-2-related factor 2 (Nrf2; NCBI Gene ID: 4780) which is an antioxidant transcription factor. First, human corneal endothelial cells were cultured at 3×10^5 cells per well in a 6-well plate coated with FNC Coating Mix for 18 to 24 hours, and the samples were treated. Four hours after the sample treatment, the corneal dystrophy-like environment was induced in accordance with the method described in Example 3-2. Twenty-four hours after induction of the corneal dystrophy-like environment, the cells were washed with phosphate-buffered saline (PBS) and lysed using RIPA lysis buffer (GenDEPOT) containing protease inhibitor cocktail tablets (GenDEPOT, TX, USA). The cell lysates were centrifuged at 13,000 rpm at 4° C. for 10 minutes to obtain the supernatant. Protein concentration in the supernatant was determined using a BCA kit (Thermo Fisher Scientific, MA, USA). Equal amounts of protein were mixed with 5x SDS sample buffer and boiled for 5 minutes, followed by gel electrophoresis. The separated proteins were transferred to a nitrocellulose membrane (GenDEPOT), and nonspecific antibody binding was blocked by incubating the membrane in 5% skim milk at room temperature for 1 hour. […]

N-cadherin = test: Real-time PCR, N-cadherin mRNA; assay type: cell-based, human; conditions: corneal dystrophy-like environment
Method: as §1, §3

[5] = tested on: human corneal endothelial cells; test: In vitro antioxidant activity, ROS-Glo H2O2 assay in corneal dystrophy-like environment; assay type: cell-based; conditions: compared to control group (corneal dystrophy-mimicking: UV 5 J/cm^2 + TGF-β1 10 ng/ml); sample 4 h before induction
Method: PriNeu I medium, which is a serum-free medium, was supplemented with 10% fetal bovine serum, human epidermal growth factor (EGF), human vascular endothelial growth factor (VEGF), human insulin, human transferrin, sodium selenite, hydrocortisone, heparin, R estradiol, L-glutamine, penicillin/streptomycin, and G418 (geneticin). Human corneal endothelial cells (purchased from Creative Biolabs (NY, USA)) were seeded onto culture dishes coated with FNC Coating Mix (Athena Environmental Science, MD, USA) and incubated at 37° C. in a humidified 5% CO2 atmosphere.
To establish an intracellular environment similar to that of cells affected by corneal dystrophy (hereinafter referred to as “corneal dystrophy-like environment”), cellular signaling pathways involving reactive oxygen species (ROS) and transforming growth factor-beta (TGF-β), both known to be associated with corneal dystrophy, were activated. Human corneal endothelial cells were first cultured in standard medium for 24 hours, after which the medium was replaced with serum-free PriNeu I medium. The cells were then irradiated at an intensity of 5 J/cm^2 using a UV irradiation (BLX-Link, Vilber, France). Subsequently, the cells were treated with recombinant human TGF-β1 protein at a concentration of 10 ng/ml (Bon Opus, NJ, USA).
To determine the effect of the above-prepared lipo-hydroxamic acid derivatives on oxidative stress activity in corneal endothelial cells, human corneal endothelial cells were cultured at 1.5×10^4 cells per well in a 96-well plate coated with FNC Coating Mix for 18 to 24 hours. Subsequently, the cells were treated with the test samples (Samples 1, 3, and 5). […] The oxidative stress activity was determined by measuring the level of hydrogen peroxide (hereinafter referred to as “H2O2”) in the cell culture medium using the ROS-Glo™ H2O2 Assay (Promega, WI, USA) according to the manufacturer's instructions. The luminescence intensity was measured using the GloMax® Discover microplate reader (Promega) at an excitation wavelength of 485 nm and an emission wavelength of 520-530 nm.

HO-1 = test: Real-time PCR, HO-1 mRNA; assay type: cell-based, human; conditions: corneal dystrophy-like environment
Method: as §1

fibronectin = test: Real-time PCR, fibronectin mRNA; assay type: cell-based, human; conditions: corneal dystrophy-like environment
Method: as §1, §3

Nrf2 = Nrf2 protein expression in corneal tissue in vivo (Western blot); design: species or system rat; conditions: 0.1% and 0.3% eye drops; compared to control (0.02% benzalkonium)
Method: as §2
To determine the effect of the sample on oxidative stress, animal experiments were conducted using Sprague-Dawley rats (purchased from Bio Link). […] To determine whether oxidative stress was induced, the H2O2 level, an indicator of oxidative stress, was measured in the anterior aqueous humor and corneal tissue using the Amplex Red Hydrogen Peroxide/Peroxidase assay kit (Invitrogen, MA, USA) according to the manufacturer's instructions. Afterwards, the animal model received 10 μL drops (single dose) of the sample (Sample 1) at a dose of 0.1% or 0.3% for 24 hours, including pretreatment, three times a day for 3 days, and then the H2O2 level in the anterior aqueous humor was measured. […]

Sprague-Dawley rats = test: Antioxidant activity in vivo, H2O2 level after benzalkonium-induced corneal oxidative stress; design: species or system rat; conditions: 0.1% and 0.3% eye drops, 10 μL, three times a day for 3 days; compared to control (0.02% benzalkonium)
Method: To determine the effect of the sample on oxidative stress, animal experiments were conducted using Sprague-Dawley rats (purchased from Bio Link). To induce oxidative stress in the cornea of an animal model, the anterior chamber of the right eye was punctured using a syringe equipped with a 30G needle, and then the needle was inserted into the corneal limbus to inject 0.02% benzalkonium (BAK), a known oxidative stress inducer. The ocular surface was subsequently rinsed with sterile saline. To determine whether oxidative stress was induced, the H2O2 level, an indicator of oxidative stress, was measured in the anterior aqueous humor and corneal tissue using the Amplex Red Hydrogen Peroxide/Peroxidase assay kit (Invitrogen, MA, USA) according to the manufacturer's instructions. Afterwards, the animal model received 10 μL drops (single dose) of the sample (Sample 1) at a dose of 0.1% or 0.3% for 24 hours, including pretreatment, three times a day for 3 days, and then the H2O2 level in the anterior aqueous humor was measured. Additionally, proteins were extracted from the harvested corneal tissue, and Western blot was performed in the same manner as in Example 5-1 to examine the expression of the Nrf2 protein. […]

- Peak area (%) ([1]; 0.5 h): 97.37%
- Peak area (%) ([1]; 2 h): 92.65%
- Peak area (%) ([1]; 18 h): 17.42%
- Peak area (%) ([1]; 24 h): 6.00%
- Peak area(%) Sample 1 ([2]; Day 1): 99.36%
- Peak area(%) Total amount of decomposed products ([2]; Day 1): 0.62%
- Peak area(%) Sample 1 ([2]; Day 2): 99.20%
- Peak area(%) Total amount of decomposed products ([2]; Day 2): 0.80%
- Peak area(%) Sample 1 ([2]; Day 3): 99.36%
- Peak area(%) Total amount of decomposed products ([2]; Day 3): 0.64%
- Peak area(%) Sample 1 ([2]; Early stage): 99.72%
- Peak area(%) Total amount of decomposed products ([2]; Early stage): 0.28%
- stability in a liquid phase ([2]; up to day 3): good stability
Compound: O=C(CCCCC1CCSS1)NOCCO (stereo not drawn) [Sample 1, 5-[1,2]dithiolan-3-yl-pentanoic acid (2-hydroxy-ethoxy)-amide]
- mRNA expression of peroxiredoxin 1 (Prdx1) (peroxiredoxin 1 (Prdx1)): significantly increased
- protein expression of cleaved caspase-3 (cleaved caspase-3): significantly decreased in a concentration-dependent manner
- phosphorylation of Smad2/3 protein (Smad2/3): significantly decreased
- mRNA expression of collagen I (collagen I): significantly decreased in a concentration-dependent manner
- mRNA expression of ABCB6 (ABCB6): significantly increased
- concentration from which a significant increase in cell viability was observed [3]: ≥ 30 µM
- mRNA expression of NQO-1 (NQO-1): significantly increased
- activity of the Smad3 protein (Smad3): significantly decreased
- Nrf2 protein expression [4]: significantly increased
- mRNA expression of N-cadherin (N-cadherin): significantly decreased in a concentration-dependent manner
- oxidative stress (H2O2 level in cell culture medium) [5]: significantly decreased
- mRNA expression of HO-1 (HO-1): significantly increased
- mRNA expression of fibronectin (fibronectin): significantly decreased in a concentration-dependent manner
- Nrf2 expression in corneal tissue (Nrf2): significantly increased depending on the concentration of the sample
- decrease of H2O2 in the anterior aqueous humor (Sprague-Dawley rats): 40-70%

Compound: CN(OCCO)C(=O)CCCC[C@@H]1CCSS1 [Sample 3, (R)-5-[1,2]dithiolan-3-yl-pentanoic acid (2-hydroxy-ethoxy)-methyl-amide]
- oxidative stress (H2O2 level in cell culture medium) [5]: significantly decreased

Compound: O=C(CCCCC1CCSS1)N(O)C(=O)CCCCC1CCSS1 (stereo not drawn) [Sample 5, 5-[1,2]dithiolan-3-yl-pentanoic acid (5-[1,2]dithiolan-3-yl-pentanoyl-hydroxy-amide)]
- oxidative stress (H2O2 level in cell culture medium) [5]: significantly decreased
